Experimental data reported in US20250304928A1, “AN OMEGA-TRANSAMINASE MUTANT BASED ON […] SEQUENCE RECONSTRUCTION” (priority 2021, published 2025).

Columns and labels:
[1] = target: Aspergillus terreus ω-transaminase, wild type (WT-AT), SEQ ID NO. 2 (Aspergillus terreus, UniProt Q0C8G1); assay: Enzyme kinetic parameters of wild type ω-transaminase (WT-AT); assay type: biochemical; conditions: PBS 50 mM, pH 8.0, 0.01 mM PLP
Description: The wild-type ω-transaminase from Aspergillus terreus has an amino acid sequence as shown in SEQ ID NO. 2, and has a gene sequence as shown in SEQ ID NO. 1.
(§1) The enzyme activity of wild type and mutant ω-transaminase at different concentrations was determined by enzyme activity assay. The reaction rates V for different substrates as well as different substrate concentrations [S] were brought into the Michaelis-Menten equation V=Vmax×[S]/(Km+[S]), nonlinear curve fit was performed using Origin 8.0 software, and the enzyme kinetic parameters Km and Vmax were calculated for wild type and mutants; the conversion number kcat and catalytic efficiency kcat/Km were calculated for wild type and mutants from the equation kcat=Vmax/[E], where [E] was the molar concentration of the enzyme.

[2] = target: T1, Aspergillus terreus ω-transaminase mutant Ancata-101 (D5E-A12Q-I17V-S20A-T21S-E22A-T23S-A42H-I77L-T78S-T85S-L87M-R90K-D96E-Q97E-E104D-T130S-R131K-D134E-I135L-13 (Aspergillus terreus, UniProt Q0C8G1, A12Q/A174S/A195S/A246V/A313P/A42H/D134E/D153E/D5E/D96E/E104D/E22A/E248R/E323S/F250N/F258V/G292D/H210N/I135L/I175M/I17V/I295V/I77L/INS138N/INS325KKSG/L87M/M288K/N245D/N322E/N325S/Q236E/Q294K/Q97E/R131K/R266Q/R324A/R90K/S20A/T130S/T21S/T23S/T284S/T78S/T85S/V143I/V157T/V162I/V163I/V188T)); assay: Enzyme kinetic parameters of mutant ω-transaminase Ancata-101; assay type: biochemical
T1 construct: ancestral reconstruction Ancata-101
Description: as §1

[3] = target: T2, Aspergillus terreus ω-transaminase mutant Ancata-124 (D5E-A12Q-I17V-S20A-T21S-E22A-T23S-A42H-I77L-T78S-T85A-R90K-D96E-Q97E-E104D-T130S-R130K-I135L-138insN-V143I (Aspergillus terreus, UniProt Q0C8G1, A12Q/A195S/A246V/A313P/A42H/D153E/D5E/D96E/E104D/E22A/E248R/E323S/F250N/F258V/G292D/H210N/I135L/I17V/I295V/I77L/INS138N/INS325KS/L263M/M154V/M288K/N245D/N322E/N325S/Q236E/Q294K/Q97E/R131K/R266Q/R324A/R90K/S20A/T130S/T21S/T23S/T284S/T78S/T85A/V143I/V157T/V162I/V163I)); assay: Enzyme kinetic parameters of mutant ω-transaminase Ancata-124; assay type: biochemical
T2 construct: ancestral reconstruction Ancata-124
Description: as §1

C[C@@H](N)c1ccccc1 [4] = assay: Enzyme kinetic parameters of mutant ω-transaminase Ancata-101; assay type: biochemical, Aspergillus terreus; conditions: other: PBS 50 mM, pH 8.0, 0.01 mM PLP
CC(=O)C(=O)O [5] = assay: as above; assay type: biochemical, Aspergillus terreus; conditions: other: PBS 50 mM, pH 8.0, 0.01 mM PLP
C[C@@H](N)c1ccccc1 [6] = assay: Enzyme kinetic parameters of mutant ω-transaminase Ancata-124; assay type: biochemical, Aspergillus terreus; conditions: other: PBS 50 mM, pH 8.0, 0.01 mM PLP, 25.0 °C
CC(=O)C(=O)O [7] = assay: as above; assay type: biochemical, Aspergillus terreus; conditions: other: PBS 50 mM, pH 8.0, 0.01 mM PLP, 25.0 °C

In the case of `CC(=O)C(=O)O` [pyruvate, pyruvic acid], the “kcat (pyruvate)” value [1] is reported as 0.50 ± 0.01 s⁻¹, the “kcat/Km (pyruvate)” value [1] is reported as 2220 M⁻¹ s⁻¹ and the Km ([1]; read-out: Km (pyruvate)) is reported as 230 ± 20 µM. For the same compound, the “kcat (pyruvate)” value ([2]; PBS 50 mM, pH 8.0, 0.01 mM PLP) was 1.50 ± 0.03 s⁻¹, the “kcat/Km (pyruvate)” value ([2]; PBS 50 mM, pH 8.0, 0.01 mM PLP) was 1300 M⁻¹ s⁻¹ and the “catalytic efficiency for pyruvic acid compared with wild type” value ([2]; in words, versus wild type) was “lower than that of the wild type”. For the same compound, the “kcat (pyruvate)” value ([3]; PBS 50 mM, pH 8.0, 0.01 mM PLP) was 0.74 ± 0.03 s⁻¹, the “kcat/Km (pyruvate)” value ([3]; PBS 50 mM, pH 8.0, 0.01 mM PLP) was 790 M⁻¹ s⁻¹ and the “catalytic efficiency for pyruvic acid compared with wild type” value ([3]; in words, versus wild type) was “lower than that of the wild type”.

In the case of `C[C@@H](N)c1ccccc1` [α-MBA, (R)-(+)-α-methylbenzylamine], the “Km (α-MBA) compared with wild type” value ([2]; in words, versus wild type) is reported as “slightly higher than that of the wild type” and the “Km (α-MBA) compared with wild type” value ([3]; in words, versus wild type) is reported as “slightly higher than that of the wild type”.

For “Aspergillus terreus ω-transaminase mutant Ancata-101 (D5E-A12Q-I17V-S20A-T21S-E22A-T23S-A42H-I77L-T78S-T85S-L87M-R90K-D96E-Q97E-E104D-T130S-R131K-D134E-I135L-138insN-V143I-D153E-V157T-V162I-V163I-A174S-I175M-V188T-A195S-H210N-Q236E-N245D-A246V-E248R-F250N-F258V-R266Q-T284S-M288K-G292D-Q294K-I295V-A313P-N322E-E323S-R324A-N325S-325insKKSG), SEQ ID NO. 4 (Aspergillus terreus NIH2624; A12Q/A174S/A195S/A246V/A313P/A42H/D134E/D153E/D5E/D96E/E104D/E22A/E248R/E323S/F250N/F258V/G292D/H210N/I135L/I175M/I17V/I295V/I77L/INS138N/INS325KKSG/L87M/M288K/N245D/N322E/N325S/Q236E/Q294K/Q97E/R131K)”, the Km (C[C@@H](N)c1ccccc1 [4]) was 280 ± 30 µM and the Km (CC(=O)C(=O)O [5]) was 1150 ± 20 µM.

In the case of “Aspergillus terreus ω-transaminase mutant Ancata-124 (D5E-A12Q-I17V-S20A-T21S-E22A-T23S-A42H-I77L-T78S-T85A-R90K-D96E-Q97E-E104D-T130S-R130K-I135L-138insN-V143I-D153E-M154V-V157T-V162I-V163I-A195S-H210N-Q236E-N245D-A246V-E248R-F250N-F258V-L263M-R266Q-T284S-M288K-G292D-Q294K-I295V-A313P-N322E-E323S-R324A-N325S-325insKS), SEQ ID NO. 6 (Aspergillus terreus NIH2624; A12Q/A195S/A246V/A313P/A42H/D153E/D5E/D96E/E104D/E22A/E248R/E323S/F250N/F258V/G292D/H210N/I135L/I17V/I295V/I77L/INS138N/INS325KS/L263M/M154V/M288K/N245D/N322E/N325S/Q236E/Q294K/Q97E/R131K/R266Q/R324A/)”, the Km (C[C@@H](N)c1ccccc1 [6]) is reported as 280 ± 10 µM and the Km (CC(=O)C(=O)O [7]) is reported as 930 ± 10 µM.
